Measured values reported in PMC8524146, “In vitro and in silico characterization of alkaline serine protease from Bacillus subtilis D9 recovered from Saudi Arabia” (Heliyon, 2021).

Target: T1, AKD9 alkaline serine protease (Bacillus subtilis, UniProt A0A5Q0V2V1)
T1 construct: native enzyme purified from culture supernatant of isolate D9; single band just below 48 kDa; cloned gene 442 aa, 47,789 Da
Experiment: casein hydrolysis, A280 of TCA-soluble products
Assay type: biochemical
Conditions: 100 µM; 0.1 mM TLCK; casein substrate
Source text: casein hydrolysis, A280 of TCA-soluble products on AKD9 alkaline serine protease

T1 sequence (A0A5Q0V2V1 1-442): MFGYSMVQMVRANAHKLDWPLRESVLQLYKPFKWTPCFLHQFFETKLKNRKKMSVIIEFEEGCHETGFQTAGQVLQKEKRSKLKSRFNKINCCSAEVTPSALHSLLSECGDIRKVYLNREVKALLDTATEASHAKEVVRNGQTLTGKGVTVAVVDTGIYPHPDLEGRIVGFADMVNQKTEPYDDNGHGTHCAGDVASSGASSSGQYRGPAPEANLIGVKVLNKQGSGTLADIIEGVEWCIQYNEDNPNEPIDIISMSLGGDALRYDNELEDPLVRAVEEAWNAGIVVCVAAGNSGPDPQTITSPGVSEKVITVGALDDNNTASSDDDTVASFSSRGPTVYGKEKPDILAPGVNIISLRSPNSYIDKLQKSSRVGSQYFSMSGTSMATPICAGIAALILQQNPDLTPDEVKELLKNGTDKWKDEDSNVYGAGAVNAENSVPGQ

Cc1ccc(S(=O)(=O)N[C@@H](CCCCN)C(=O)CCl)cc1 [TLCK]
Residual activity, U/ml: 31.5 ± 0.4 U/ml
